Patent US6881825B1, “Identication of peptides that facilitate uptake and cytoplasmic and/or nuclear transport of proteins, DNA and virues” (University of Pittsburgh of The Commonwealth System of …, priority 1999, dated 2005)

Key:
HIG82 cells = experiment: Cell viability by MTT assay (OD 570 nm); format: cell-based, rabbit; details: HIG-82 cells; 100-3.1 μM peptide, three hours; FIG. 14, 15
Description: 2×10^5 cells (HIG82, MCA205 or Jurkatt) were seeded into 24 well plates. Forty-eight hours later, 100 μM, 50 μM, 25 μM, 6.25 μM and 3.1 μM of the either the death peptide (SEQ ID NO:24), peptide 5 alone (SEQ ID NO:5) or the apoptotic peptide alone (SEQ ID NO:23) was added to the cells. To check for cell viability, three hours later, the media was aspirated and 1 ml of scrum-free media containing 0.25 mg of MTT was added to each well and incubated for 4 hours at 37° C. MTT-containing media was then removed and 1 ml of absolute isopropanol containing 0.4N HCl was added. Photographs were taken of the plates, then the cells were harvested and any debris was centrifuged. OD as taken at λ=570 nm. Each sample point was performed in triplicate.

[1] = test system: arthritic rabbit knee joints; experiment: IL-1-induced arthritis, intra-articular peptide, TUNEL/histology and lavage white blood cells; format: in vivo; details: arthritic rabbit knees; FIG. 18
Description: In addition, the death peptide was administered to rabbits with IL-1-induced arthritis (see Ghivizzani et al. J. Immunol. 159:3604 (1997)). Three arthritic rabbits received the death peptide, three received peptide 5 alone and 3 received the apoptotic protein alone. The rabbits were sacrificed 24 or 72 hours post-injection of the peptides and the rabbit knee capsules were removed for histology analysis and TUNEL staining.

MCA205 fibrosarcomas = experiment: TUNEL and H&E staining of treated MCA205 fibrosarcomas; format: in vivo, C57BL/6 mice; details: 11 days daily treatment, sacrificed three hours after last injection; FIG. 16C
Description: To determine whether the death peptide could induce apoptosis in tumor cells and inhibit tumor growth in vivo, C57BL/6 mice bearing day 7 tumors in each […] (seeded with 1×10^5 MCA205 cells) were injected daily for 10 days with a 50 μl volume of 1 mM death peptide (SEQ ID NO:24; DP1) or the apoptotic peptide alone (SEQ ID NO:23; KLA) or a saline mock into both tumors. Five mice were used in each group. Tumor volume was estimated by multiplying maximum length×width^2. Separately, C57BL/6 with single, day 12 tumors were injected with 1 mM death peptide (SEQ ID NO:24; DP1), apoptotic peptide alone (SEQ ID NO:23; KLA) or saline for eleven days. Ten mice comprised each group. On the final day, the mice were injected with the appropriate saline or peptide solution and sacrificed 3 hours post-injection. Tumors were paraffin-embedded, sectioned, and stained for TUNEL and counterstained with methyl green or stained with hematoxylin and eosin to reveal histologic architecture.
To test whether apoptosis was the mechanism of tumor killing in vivo and to study the effects of death peptide administration on tumor architecture, fibrosarcomas treated daily for 11 days with death peptide (SEQ ID NO:24; DP1), apoptotic peptide alone (SEQ ID NO:23, KLA) or tris buffered saline (TBS) were injected with 50 μl of 1 mM DP1, KLA or TBS on the eleventh day and sacrificed three hours later. […]

KLAKLAKKLAKLAK (random peptide library) was tested, and the “cell viability (MTT, OD570)” value (HIG82 cells) was “did not impair viability”, the “apoptosis of hyperplastic synovium” value [1] was “did not” and the “apoptosis in tumors (TUNEL staining)” value (MCA205 fibrosarcomas) was “No TUNEL staining”.
